Reference: US5459256A, “Lipophilic, aminohydrolase-activated prodrugs” (priority 1991, dated 1995)

Columns and labels:
[1] = physchem; details: octanol/ph 7.0 buffer, pH 7, Log P
Protocol: Measurement of Octanol-Water Partition Coefficients.
n-Octanol-water partition coefficients (P) were determined by a microscale shake-flask procedure, (Ford, H. et al Abstracts of Papers, 200th National Meeting of the American Chemical Society, Washington, D.C.; American Chemical Society: Washington, D.C., 1990; CARB 13) which was modification of an earlier method (Nahum, A. & Horvath, C. J. Chromatogr. 1980, 192, 315). A 20 μL aliquot of a 0.5 mg/mL DMSO solution of the dideoxynucleoside was dissolved in 1.0 mL of octanol-saturated, pH 7.0, 0.01M potassium phosphate buffer. This was mixed thoroughly with 1.0 ml of buffer-saturated n-octanol in a 2-mL Mixxor apparatus at 24°-26° C. and then allowed to stand for 15 min. The phases were separated, centrifuged at 600×g for 5 min, and the relative concentration of sample in each phase determined by HPLC analysis of a 50 μl aliquot. The partition coefficient was calculated by dividing the absolute area of the appropriate integrated peak from the octanol phase by that of the buffer phase (Table I).
Octanol/pH 7.0 buffer partition coefficients were determined using a newly developed microscale method. […] The addition of a methyl group normally increases the log P value of a compound by about 0.5.

[2] = Toxicity on ATH8 target cells (% toxicity, dye exclusion); assay type: cell-based; details: human, ath8 cells, % Toxicity
Protocol: (§1) HIV Cytopathic Effect Inhibition Assay.
(§2) The HIV cytopathic effect inhibition assay was performed as previously described. […] On day 8 in culture, the viable cells were counted by using the dye exclusion method. All compounds, including inactives, were evaluated a minimum of two times in separate experiments. Data reported in Table II are from representative tests. The % protection against the virus was determined by the following formula: 100 times [(the number of viable cells exposed to HIV-1 and cultured in the presence of the compound minus the number of viable cells exposed to HIV-1 and cultured in the absence of compound) divided by (the number of viable cells cultured alone minus the number of viable cells exposed to HIV-1 and cultured in the absence of the compound)]. The % toxicity of a compound on the target cells was determined by the following formula: 100 times [1 minus (the number of total viable cells cultured in the presence of the compound divided by the number of total viable cells cultured alone)]. Calculated percentages equal to or less than zero are expressed as 0%.

[3] = system: CD4^+ ATH8 cells; experiment: as above; assay type: cell-based; details: human
Protocol: as §1, §2

[4] = system: HIV; details: cited from earlier work

SMILES: CNc1ncnc2c1ncn2[C@@H]1O[C@H](CO)C[C@@H]1F [Compound 1f, N^6 -Methyl-9-(2'3'-dideoxy-2'-fluoro-β-D-arabinofuranosyl)adenine]
- logD [1]: 0.27 ± 0.01
- cytotoxicity at 192 h, 20 µM [2]: 0%
- % Toxicity ([3]; 11520 min): 11%
- % Toxicity ([3]; ath8 cells, 192 h, 5 µM): 3%
- % Toxicity ([3]; ath8 cells, 192 h, 10 µM): 7%
- activity against HIV in peripheral blood mononuclear cells (in words) [4]: the activity of 1f against HIV in peripheral blood mononuclear cells was recently reported
